From patent US20260138985A1, “Azepino-Indoles for the Treatment of Neurological and Psychiatric Disorders” (Terran Biosciences Inc., priority 2021, published 2026)

How the values were obtained:
[1] = Metabolic stability in human liver microsomes; assay type: in vitro ADME; details: for difference in half-life and intrinsic clearance versus comparator: Compound 163 vs 8-methoxy-1,2,3,4,5,6-hexahydroazepino[4,5-b]indole, Compounds 1, 2 and 3 vs TBG; for half-life at 0.2 μM: pH 7.4, half life; for half-life at 0.2 μM / microsomal CLint at 0.2 μM / CLint scaled at 0.2 μM: values marked * average of two experiments; for microsomal CLint at 0.2 μM: pH 7.4, intrinsic clearance, read-out: CLint(mic); for CLint scaled at 0.2 μM: pH 7.4, scaled from CLint(mic)
Protocol: Microsomal Assay: Human liver microsomes (20 mg/mL) are obtained from Xenotech, LLC (Lenexa, KS). β-nicotinamide adenine dinucleotide phosphate, reduced form (NADPH), magnesium chloride (MgCl2), and dimethyl sulfoxide (DMSO) are purchased from Sigma-Aldrich.
Determination of Metabolic Stability: 7.5 mM stock solutions of test compounds of the above structural formula (e.g., of an embodiment or aspect of embodiment thereof described herein), or pharmaceutically acceptable salt thereof, are prepared in DMSO. […] The diluted microsomes are added to wells of a 96-well deep-well polypropylene plate in triplicate. […] Reactions are initiated by addition of pre-warmed NADPH solution. The final reaction volume is 0.5 mL and contains 4.0 mg/mL human liver microsomes, 0.2 μM test compound, and 2 mM NADPH in 0.1 M potassium phosphate buffer, pH 7.4, and 3 mM MgCl2. The reaction mixtures are incubated at 37° C., and […] aliquots are removed at 0, 5, 10, 20, and 30 minutes and added to shallow-well 96-well plates which contain […] of ice-cold ACN (acetonitrile) with internal standard to stop the reactions. The plates are stored at 4° C. for 20 minutes after which […] of water is added to the wells of the plate before centrifugation to pellet precipitated proteins. Supernatants are transferred to another 96-well plate and analyzed for amounts of parent remaining by LC-MS/MS using an Applied Bio-systems API 4000 mass spectrometer. The same procedure is followed for the non-deuterated counterpart of the compound and the positive control, 7-ethoxycoumarin (1 μM). Testing is done in triplicate.
Data analysis: The in vitro Ti/s for test compounds are calculated from the slopes of the linear regression of % parent remaining (In) vs incubation time relationship.
[formula] • k=−[slope of linear regression of % parent remaining (In) vs incubation time] • The apparent intrinsic clearance is calculated using the following equation: […]
Data analysis is performed using Microsoft Excel Software.

[2] = molecular target: T1, 5-HT2C receptor (Homo sapiens, UniProt P28335); assay: Calcium mobilization assay, antagonist format, 5-HT2C receptor; assay type: cell-based; set-up: dose or concentration left out as unconfirmed
T1 construct: host or cells: unnamed cell lines
T1 sequence (P28335 33-458): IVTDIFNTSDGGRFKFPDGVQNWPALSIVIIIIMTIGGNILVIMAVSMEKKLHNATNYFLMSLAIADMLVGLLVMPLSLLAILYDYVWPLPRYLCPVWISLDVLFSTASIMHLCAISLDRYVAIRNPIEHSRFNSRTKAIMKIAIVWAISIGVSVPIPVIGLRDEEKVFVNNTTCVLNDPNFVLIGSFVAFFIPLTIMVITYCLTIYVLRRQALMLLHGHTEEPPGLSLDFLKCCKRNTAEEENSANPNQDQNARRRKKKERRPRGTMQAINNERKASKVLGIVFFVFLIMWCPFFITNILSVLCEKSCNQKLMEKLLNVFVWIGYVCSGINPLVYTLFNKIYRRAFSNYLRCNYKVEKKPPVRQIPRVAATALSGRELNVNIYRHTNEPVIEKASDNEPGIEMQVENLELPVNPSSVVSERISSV
Protocol: (§1) Protocol—in vitro testing at select 5-hydroxytryptamine (5-HT; serotonin) receptors was conducted.
(§2) • 1. Cell lines were expanded from freezer stocks according to standard procedures. • 2. Cells were seeded in a total volume of 20 μL into black-walled, clear-bottom, Poly-D-lysine coated 384-well microplates and incubated at 37° C. for the appropriate time prior to testing.
(§3) • 1. Assays were performed in 1×Dye Loading Buffer consisting of 1× Dye, 1× Additive A and 2.5 mM Probenecid in HBSS/20 mM Hepes. Probenicid was prepared fresh. • 2. Cells were loaded with dye prior to testing. Media was aspirated from cells and replaced with 20 μL Dye Loading Buffer. • 3. Cells were incubated for 30-60 minutes at 37° C.
• 1. For antagonist determination, cells were pre-incubated with sample followed by agonist challenge at the EC80 concentration. • 2. Intermediate dilution of sample stocks was performed to generate 3× sample in assay buffer. • 3. After dye loading, cells were removed from the incubator and […] 3× sample was added. Cells were incubated for 30 minutes at room temperature in the dark to equilibrate plate temperature. Vehicle concentration was 1%. • 4. Compound antagonist activity was measured on a FLIPR Tetra (MDS). Calcium mobilization was monitored for 2 minutes and 10 μL EC80 agonist in HBSS/20 mM Hepes was added to the cells 5 seconds into the assay.
(§4) • 1. Compound activity was analyzed using CBIS data analysis suite (ChemInnovation, CA). • 2. For agonist mode assays, percentage activity is calculated using the following formula: % Activity=100%×(mean RFU of test sample−mean RFU of vehicle control)/(mean MAX RFU control ligand −mean RFU of vehicle control). • 3. For positive allosteric mode assays, percentage modulation was calculated using the following formula: % Modulation=100%×((mean RFU of test sample−mean RFU of EC20 control)/(mean RFU of MAX control ligand −mean RFU of EC20 control)). • 4. For antagonist and negative allosteric modulation mode assays, percentage inhibition is calculated using the following formula: % Inhibition=100%×(1−(mean RFU of test sample−mean RFU of vehicle control)/(mean RFU of EC80 control−mean RFU of vehicle control)).
(§5) As discussed above, agonism, or partial agonism, of the 5-HT2A receptor (also known as positive allosteric modulation, or 5-HT2A modulation) is useful for the treatment of neurological and psychiatric disorders. For example, 5-HT2A agonism has been correlated with the promotion of neural plasticity (Ly et al., 2018). Agonism of the 5-HT2B receptor has been associated with unwanted cardiac valvulopathy side-effects, a form of cardio-toxicity (Rothman et al., Circulation. 2000, 102, 2836-2841; Fitzgerald et al., Molecular Pharmacology 2000, 57, 75-81). […] Antagonists of the 5-HT2C receptor are also useful for the treatment of neurological and psychiatric disorders (Kennett et al., Neuropharmacology 1997, 36, 609-620).

[3] = molecular target: T2, 5-HT2B receptor (Homo sapiens, UniProt P41595); assay: Calcium mobilization assay, agonist format, 5-HT2B receptor; assay type: cell-based; details: read-out: 5-HT2B agonist Efficacy @ 5 µM
T2 construct: host or cells: unnamed cell lines
T2 sequence (P41595 whole entry): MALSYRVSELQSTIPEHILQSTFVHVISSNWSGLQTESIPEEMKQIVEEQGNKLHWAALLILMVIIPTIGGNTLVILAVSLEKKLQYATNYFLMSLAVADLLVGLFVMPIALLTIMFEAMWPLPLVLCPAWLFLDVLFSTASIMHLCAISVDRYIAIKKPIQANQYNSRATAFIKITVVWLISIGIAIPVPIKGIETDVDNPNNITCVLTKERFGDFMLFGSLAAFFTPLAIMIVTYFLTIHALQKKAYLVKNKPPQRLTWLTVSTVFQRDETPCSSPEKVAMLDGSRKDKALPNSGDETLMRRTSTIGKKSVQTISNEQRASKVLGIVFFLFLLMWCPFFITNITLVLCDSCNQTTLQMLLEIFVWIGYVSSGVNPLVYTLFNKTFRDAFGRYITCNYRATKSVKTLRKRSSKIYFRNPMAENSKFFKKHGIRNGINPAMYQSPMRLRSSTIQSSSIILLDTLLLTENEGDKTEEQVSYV
Protocol: as §1, §2, §3
(§6) • 1. For agonist determination, cells were incubated with sample to induce response. • 2. After dye loading, cells were removed from the incubator and 10 μL HBSS/20 mM Hepes was added. 3× vehicle was included in the buffer when performing agonist dose curves to define • the EC80 for subsequent antagonist assays. Cells were incubated for 30 minutes at room temperature in the dark to equilibrate plate temperature. • 3. Intermediate dilution of sample stocks was performed to generate 4× sample in assay buffer. • 4. Compound agonist activity was measured on a FLIPR Tetra (MDS). Calcium mobilization was monitored for 2 minutes and 10 μL 4× sample in HBSS/20 mM Hepes was added to the cells 5 seconds into the assay.
as §4, §5

[4] = molecular target: T3, 5-HT2A receptor (Homo sapiens, UniProt P28223); assay: Calcium mobilization assay, agonist format, 5-HT2A receptor; assay type: cell-based; details: read-out: 5-HT2A agonist Efficacy @ 10 µM
T3 construct: host or cells: unnamed cell lines
T3 sequence (P28223 whole entry): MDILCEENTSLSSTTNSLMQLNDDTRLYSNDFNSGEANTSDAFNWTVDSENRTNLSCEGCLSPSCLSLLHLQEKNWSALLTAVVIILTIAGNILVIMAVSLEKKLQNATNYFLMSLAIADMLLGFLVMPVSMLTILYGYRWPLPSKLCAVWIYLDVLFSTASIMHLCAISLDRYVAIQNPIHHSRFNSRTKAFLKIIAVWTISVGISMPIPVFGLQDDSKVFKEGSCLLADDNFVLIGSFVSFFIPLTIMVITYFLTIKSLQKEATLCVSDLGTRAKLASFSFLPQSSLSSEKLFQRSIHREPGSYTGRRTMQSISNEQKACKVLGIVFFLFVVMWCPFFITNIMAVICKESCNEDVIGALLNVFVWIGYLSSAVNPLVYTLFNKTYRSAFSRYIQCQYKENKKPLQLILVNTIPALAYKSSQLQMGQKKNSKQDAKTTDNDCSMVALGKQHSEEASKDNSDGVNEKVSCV
Protocol: as §1, §2, §3, §6, §4, §5

SMILES | difference in half-life and intrinsic clearance versus comparator [1] | half-life at 0.2 μM [1] [h] | microsomal CLint at 0.2 μM [1] [µL/min/mg] | CLint scaled at 0.2 μM [1] [mL/min/kg] | inhibition [2] [%] | activation at 5 µM [3] [%] | activation at 10 µM [4] [%] | intrinsic clearance ratio ([1]; compared with 8-methoxy-1,2,3,4,5,6-hexahydroazepino[4,5-b]indole)
[2H]C([2H])([2H])Oc1ccc2c3c([nH]c2c1)CCN(C([2H])([2H])[2H])CC3 [Compound 3, 8-(trideuteriomethoxy)-3-(trideuteriomethyl)-2,4,5,6-tetrahydro-1H-azepino[4,5-b]indole] | differences in half-life and intrinsic clearance | 1.38 | 16.8 | 15.1 | 95 | -0.7 | 40 | 
COc1ccc2c3c([nH]c2c1)CCNCC3 [8-methoxy-1,2,3,4,5,6-hexahydroazepino[4,5-b]indole, reference compound] |  | 1.82 | 12.7 | 11.4 | 98.1 | 0.6 | 85.3 | 
[2H]C([2H])([2H])Oc1ccc2c3c([nH]c2c1)CCN(C)CC3 [Compound 1, 3-methyl-8-(trideuteriomethoxy)-2,4,5,6-tetrahydro-1H-azepino[4,5-b]indole] | differences in half-life and intrinsic clearance | 1.35 | 17.2 | 15.4 | 95.5 | -8.3 | 30.4 | 
COc1ccc2c3c([nH]c2c1)CCN(C)CC3 [TBG, 8-methoxy-3-methyl-1,2,3,4,5,6-hexahydroazepino[4,5-b]indole, reference compound] |  | 1.5 | 15.6 | 14 | 94.7 | -0.9 | 38.5 | 
[2H]C([2H])([2H])Oc1ccc2c3c([nH]c2c1)CCNCC3 [Compound 163, 8-(trideuteriomethoxy)-1,2,3,4,5,6-hexahydroazepino[4,5-b]indole] | significant difference in half-life | 1.44 | 16.1 | 14.5 | 97.7 | -0.2 | 83 | > 1.15
